Reference: patent US20260078130A1, “NAMPT MODULATORS, PREPARATIONS, AND USES THEREOF” (SIRONAX LTD., priority 2022, published 2026)
Like-named read-outs stand apart in the source and are kept apart here.

Assays:
[1] = system: endogenous NAMPT in U2OS cells; test: Cellular NAD+ modulation assay (NAD/NADH-Glo, U2OS cells); format: cell-based; settings: Homo sapiens; for maximal fold induction: read-out: Cellular Emax
Procedure: Certain compounds described herein were also assayed for their ability to stimulate the endogenous NAMPT in a native cellular environment in a cellular NAD^+ modulation assay. U2OS cells were grown in McCoy's 5A medium with 10% fetal bovine serum, in a humidified incubator with an atmosphere of 95% air and 5% CO2 at 37° C. The assays were initiated by plating 30 μL of U2OS cells in a culture medium with 10% fetal bovine serum, at a density of 3000 cells per well in a Corning® 384-well White/Clear Bottom Polystyrene Microplate. The plates were incubated in 37T incubators for a period of 16 hours. Test compounds with a series of concentrations in DMSO were added to the plates in a volume of 150 nL using Echo Liquid handlers. The plates are then incubated for 24 hours. The medium was removed from the wells, then 10 μL PBS was added to each well. To each well of cells in 10 μL of PBS, 10 μL of base solution with 1% DTAB was added. The plate was briefly mixed on a plate shaker to ensure homogeneity and cell lysis (5 mins). 10p L of 0.4N HCl was added per well. The plate was coved, and all samples were incubated for 15 minutes at 60° C. Then the plate was equilibrated for 10 minutes at room temperature. 10 μL of 0.5M Trizma® base was added to each well of acid-treated cells to neutralize the acid. Finally, 30 μL of NAD/NADH-Glo™ Detection Reagent was added. The plate was gently shaken to mix the samples. The plate was incubated for 40 minutes at room temperature. Luminescence was recorded using a luminometer. The potency measurements for the test compounds were quantified and represented as EC50 (concentration of a compound that gives half-maximal activation) and Emax (fold change of a compound's maximal activation compared to DMSO).

[2] = target: T1, human enzyme NAMPT (full length) (Homo sapiens, UniProt P43490); test: NMN fluorescence biochemical assay (stimulation of NMN synthesis by NAMPT); settings: for EC50: concentration giving half-maximal activation, read-out: Enzymatic EC50; for Enzymatic Emax: fold change of maximal activation compared to DMSO
T1 construct: human enzyme NAMPT (full length)
Procedure, shortened: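 Full-length human NAMPT (100 nM) was preincubated 15 min at 37 °C with compound in 50 mM Tris-HCl pH 7.5, 10 mM MgCl2, 2 mM DTT, then reacted 1 h at 37 °C with 50 μM NAM, 100 μM PRPP, 4 mM ATP (stated solution concentrations). NMN was derivatised with acetophenone/KOH then formic acid and read at Ex/Em 382/445 nm; EC50 and Emax (fold over DMSO) reported.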

[3] = 24 hours incubation, cellular NAD+
[4] = NMN fluorescence assay, purified human NAMPT 100 nM
[5] = 24 hours incubation with compound
[6] = NMN synthesis by purified human NAMPT (100 nM)

T1 sequence (P43490 whole entry): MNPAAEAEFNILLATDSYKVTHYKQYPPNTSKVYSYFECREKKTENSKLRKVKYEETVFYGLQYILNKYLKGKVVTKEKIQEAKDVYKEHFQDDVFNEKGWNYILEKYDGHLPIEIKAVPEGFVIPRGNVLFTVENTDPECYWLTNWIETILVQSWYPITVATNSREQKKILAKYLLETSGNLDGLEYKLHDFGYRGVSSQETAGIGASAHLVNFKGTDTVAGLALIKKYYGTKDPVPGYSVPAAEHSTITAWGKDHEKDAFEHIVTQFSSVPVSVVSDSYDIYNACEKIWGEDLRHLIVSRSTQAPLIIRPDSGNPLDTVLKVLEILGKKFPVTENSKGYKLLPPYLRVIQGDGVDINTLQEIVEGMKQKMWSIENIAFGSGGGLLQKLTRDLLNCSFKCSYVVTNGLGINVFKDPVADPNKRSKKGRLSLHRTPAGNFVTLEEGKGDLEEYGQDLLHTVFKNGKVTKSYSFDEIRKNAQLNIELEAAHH

| EC50 [1, 3] [µM] | EC50 [2, 4] [µM] | Enzymatic Emax [2] | EC50 [1, 5] [µM] | EC50 [2, 6] [µM] | SMILES | maximal fold induction [1, 3] | maximal fold induction [1, 5] |
| --- | --- | --- | --- | --- | --- | --- | --- |
| 5 to 50 | ≥ 5 | C (2≥C) | – | – | Cn1ncc(Cl)c1CC1c2ccccc2C(=O)N1C[C@@H]1C[C@@H]1c1c[nH]nn1 (relative stereo) [Compound 604, cis 2-((2-(1H-1,2,3-triazol-4-yl)cyclopropyl)methyl)-3-((4-chloro-1-methyl-1H-pyrazol-5-yl)methyl)isoindolin-1-one] | ≤ 1.2 | – |
| – | – | B (3≥B>2) | 5 to 50 | 0.5 to 5 | CC1c2cc(-c3cnco3)ccc2C(=O)N1Cc1ccc2[nH]c(=O)oc2c1 (single isomer, unassigned) [Compound 162] | – | > 1.5 |
| – | – | A (A>3) | 0.5 to 5 | ≥ 5 | Cc1ccc2c(c1)C(C)N(Cc1ccc3[nH]c(=O)oc3c1)C2=O (single isomer, unassigned) [Compound 163] | – | > 1.5 |
| – | – | B (3≥B>2) | 0.5 to 5 | ≥ 5 | C[C@H]1c2cc(C#N)ccc2C(=O)N1Cc1ccc2[nH]c(=O)oc2c1 (single isomer, unassigned) [Compound 186] | – | > 1.5 |
| – | – | B (3≥B>2) | 0.5 to 5 | 0.5 to 5 | CC1c2cc(CN3CC4(COC4)C3)ccc2C(=O)N1Cc1ccc2[nH]c(=O)oc2c1 (single isomer, unassigned) [Compound 187] | – | > 1.5 |
| – | – | B (3≥B>2) | 0.5 to 5 | ≥ 5 | COC1CCN(Cc2ccc3c(c2)[C@H](C)N(Cc2ccc4[nH]c(=O)oc4c2)C3=O)C1 (single isomer, unassigned) [Compound 188] | – | > 1.5 |
| – | – | B (3≥B>2) | 0.5 to 5 | 0.5 to 5 | CC1c2cc(C3COC3)ccc2C(=O)N1Cc1ccc2[nH]c(=O)oc2c1 (single isomer, unassigned) [Compound 198] | – | > 1.5 |
| – | – | A (A>3) | 0.5 to 5 | ≥ 5 | CC1c2cc(NC3CC3)ccc2C(=O)N1Cc1ccc2[nH]c(=O)oc2c1 (single isomer, unassigned) [Compound 242] | – | > 1.5 |
| – | – | A (A>3) | 0.5 to 5 | ≥ 5 | COc1ccc2c(c1)C(C)N(Cc1ccc3[nH]c(=O)oc3c1)C2=O (single isomer, unassigned) [Compound 243] | – | > 1.5 |
| – | – | B (3≥B>2) | 0.5 to 5 | ≥ 5 | CC1c2cc(CN(C)C)ccc2C(=O)N1Cc1ccc2[nH]c(=O)oc2c1 (single isomer, unassigned) [Compound 273] | – | 1.2 to 1.5 |
| – | – | B (3≥B>2) | 5 to 50 | ≥ 5 | CC1c2cc(CN3CCC3)ccc2C(=O)N1Cc1ccc2[nH]c(=O)oc2c1 (single isomer, unassigned) [Compound 274] | – | 1.2 to 1.5 |
| – | – | C (2≥C) | 0.5 to 5 | 0.5 to 5 | CC1c2cc(C3CCCC3)ccc2C(=O)N1Cc1ccc2[nH]c(=O)oc2c1 (single isomer, unassigned) [Compound 304] | – | 1.2 to 1.5 |
| < 0.5 | – | B (3≥B>2) | – | – | Cn1ncc(Cl)c1CC1c2ccccc2C(=O)N1C[C@@H]1CC1c1c[nH]nn1 (stereo in doubt) [Compound 548, trans 2-((2-(1H-1,2,3-triazol-4-yl)cyclopropyl)methyl)-3-((4-chloro-1-methyl-1H-pyrazol-5-yl)methyl)isoindolin-1-one] | > 1.5 | – |
| – | – | A (A>3) | 0.5 to 5 | ≥ 5 | O=c1c2ccccc2ccn1Cc1ccc(O)cc1 [Compound 1, 2-(4-hydroxybenzyl)isoquinolin-1(2H)-one] | – | > 1.5 |
| – | – | A (A>3) | 0.5 to 5 | 0.5 to 5 | O=C1c2ccccc2CCN1Cc1ccc(O)cc1 [Compound 2, 2-(4-hydroxybenzyl)-3,4-dihydroisoquinolin-1(2H)-one] | – | > 1.5 |
| – | – | B (3≥B>2) | 5 to 50 | ≥ 5 | O=C1CCc2ccccc2N1Cc1ccc(O)cc1 [Compound 3, 1-(4-hydroxybenzyl)-3,4-dihydroquinolin-2(1H)-one] | – | 1.2 to 1.5 |
| – | ≥ 5 | B (3≥B>2) | – | – | COc1c(F)cc(CN2C(=O)c3ccccc3C2Cc2c(Cl)cnn2C)cc1F (stereo not shown) [Compound 560, 3-((4-chloro-1-methyl-1H-pyrazol-5-yl)methyl)-2-(3,5-difluoro-4-methoxybenzyl)isoindolin-1-one] | – | – |
| – | ≥ 5 | C (2≥C) | – | – | Cn1ncc(Cl)c1CC1c2ccccc2C(=O)N1Cc1ccc2ocnc2c1 (stereo not shown) [Compound 561, 2-(benzo[d]oxazol-5-ylmethyl)-3-((4-chloro-1-methyl-1H-pyrazol-5-yl)methyl)isoindolin-1-one] | – | – |
| – | ≥ 5 | C (2≥C) | – | – | Cn1ncc(Cl)c1CC1c2ccccc2C(=O)N1CC1CC2(COC2)C1 (stereo not shown) [Compound 564, 2-((2-oxaspiro[3.3]heptan-6-yl)methyl)-3-((4-chloro-1-methyl-1H-pyrazol-5-yl)methyl)isoindolin-1-one] | – | – |
| – | ≥ 5 | C (2≥C) | – | – | Cn1ncc(Cl)c1CC1c2ccccc2C(=O)N1Cc1ccc(F)cc1 (stereo not shown) [Compound 572, 3-((4-chloro-1-methyl-1H-pyrazol-5-yl)methyl)-2-(4-fluorobenzyl)isoindolin-1-one] | – | – |
| – | 0.5 to 5 | C (2≥C) | – | – | Cn1ncc(Cl)c1CC1c2ccccc2C(=O)N1Cc1ccc(Br)cc1 (stereo not shown) [Compound 575, 2-(4-bromobenzyl)-3-((4-chloro-1-methyl-1H-pyrazol-5-yl)methyl)isoindolin-1-one] | – | – |
| – | 0.5 to 5 | B (3≥B>2) | – | – | CC(=O)c1ccc(CN2C(=O)c3ccccc3C2Cc2c(Cl)cnn2C)cc1 (stereo not shown) [Compound 584, 2-(4-acetylbenzyl)-3-((4-chloro-1-methyl-1H-pyrazol-5-yl)methyl)isoindolin-1-one] | – | – |
| – | ≥ 5 | C (2≥C) | – | – | Cn1ncc(Cl)c1CC1c2ccccc2C(=O)N1Cc1ccc2c(cnn2C)c1 (stereo not shown) [Compound 586, 3-((4-chloro-1-methyl-1H-pyrazol-5-yl)methyl)-2-((1-methyl-1H-indazol-5-yl)methyl)isoindolin-1-one] | – | – |
| – | ≥ 5 | C (2≥C) | – | – | Cn1ncc(Cl)c1CC1c2ccccc2C(=O)N1CC1CC2(C1)OC(=O)NC2=O (stereo not shown) [Compound 587, 2-((1-((4-chloro-1-methyl-1H-pyrazol-5-yl)methyl)-3-oxoisoindolin-2-yl)methyl)-5-oxa-7-azaspiro[3.4]octane-6,8-dione] | – | – |
| – | ≥ 5 | – | – | – | Cn1ncc(Cl)c1CC1c2ccccc2C(=O)N1Cc1ccc2[nH]c(=S)oc2c1 (stereo not shown) [Compound 626, 3-((4-chloro-1-methyl-1H-pyrazol-5-yl)methyl)-2-((2-thioxo-2,3-dihydrobenzo[d]oxazol-6-yl)methyl)isoindolin-1-one] | – | – |
| – | ≥ 5 | C (2≥C) | – | – | Cn1ncc(Cl)c1CC1c2ccccc2C(=O)N1Cc1nn[nH]c1F (stereo not shown) [Compound 630, 3-((4-chloro-1-methyl-1H-pyrazol-5-yl)methyl)-2-((5-fluoro-1H-1,2,3-triazol-4-yl)methyl)isoindolin-1-one] | – | – |
| – | ≥ 5 | B (3≥B>2) | – | – | COc1ccc(CN2C(Cc3c(Cl)cnn3C)c3ccccc3S2(=O)=O)cn1 (stereo not shown) [Compound 642, 3-((4-chloro-1-methyl-1H-pyrazol-5-yl)methyl)-2-((6-methoxypyridin-3-yl)methyl)-2,3-dihydrobenzo[d]isothiazole 1,1-dioxide] | – | – |
| – | 0.5 to 5 | B (3≥B>2) | – | – | [2H]C([2H])(C1CC2(CNC(=O)O2)C1)N1C(=O)c2ccccc2C1Cc1c(Cl)cnn1C (stereo not shown) [Compound 643, 2-((1-((4-chloro-1-methyl-1H-pyrazol-5-yl)methyl)-3-oxoisoindolin-2-yl)methyl-d)-5-oxa-7-azaspiro[3.4]octan-6-one] | – | – |

| SMILES | EC50 [1, 3] [µM] | EC50 [2, 4] [µM] | Enzymatic Emax [2] | EC50 [1, 5] [µM] | EC50 [2, 6] [µM] | maximal fold induction [1, 3] | maximal fold induction [1, 5] |
| --- | --- | --- | --- | --- | --- | --- | --- |
| Cn1ncc(Cl)c1CC1c2ccccc2C(=O)N1CCc1ccc(=O)[nH]c1 (stereo not shown) [Compound 636, 3-((4-chloro-1-methyl-1H-pyrazol-5-yl)methyl)-2-(2-(6-oxo-1,6-dihydropyridin-3-yl)ethyl)isoindolin-1-one] | – | ≥ 5 | C (2≥C) | – | – | – | – |
